# Results from ChEMBL document CHEMBL5532675, “Discovery of 4-Ethoxy-6-chloro-5-azaindazoles as Novel PDE4 Inhibitors for the Treatment of Alcohol Use Disorder and Alcoholic Liver Diseases” (J Med Chem, 2024).
# The source made the active and inactive calls. No cut-off for these calls is given here.
# How the values were obtained:
# [1] = molecular target: T1, 3',5'-cyclic-AMP phosphodiesterase 4D (Homo sapiens, UniProt Q08499); assay: Inhibition of PDE4D7 (unknown origin) using FAM-cyclic-3',5'-AMP as substrate at 100 nM incubated for 1 hrs by fluorescence polarization based IMAP assay relative to control
# T1 sequence (Q08499 whole entry): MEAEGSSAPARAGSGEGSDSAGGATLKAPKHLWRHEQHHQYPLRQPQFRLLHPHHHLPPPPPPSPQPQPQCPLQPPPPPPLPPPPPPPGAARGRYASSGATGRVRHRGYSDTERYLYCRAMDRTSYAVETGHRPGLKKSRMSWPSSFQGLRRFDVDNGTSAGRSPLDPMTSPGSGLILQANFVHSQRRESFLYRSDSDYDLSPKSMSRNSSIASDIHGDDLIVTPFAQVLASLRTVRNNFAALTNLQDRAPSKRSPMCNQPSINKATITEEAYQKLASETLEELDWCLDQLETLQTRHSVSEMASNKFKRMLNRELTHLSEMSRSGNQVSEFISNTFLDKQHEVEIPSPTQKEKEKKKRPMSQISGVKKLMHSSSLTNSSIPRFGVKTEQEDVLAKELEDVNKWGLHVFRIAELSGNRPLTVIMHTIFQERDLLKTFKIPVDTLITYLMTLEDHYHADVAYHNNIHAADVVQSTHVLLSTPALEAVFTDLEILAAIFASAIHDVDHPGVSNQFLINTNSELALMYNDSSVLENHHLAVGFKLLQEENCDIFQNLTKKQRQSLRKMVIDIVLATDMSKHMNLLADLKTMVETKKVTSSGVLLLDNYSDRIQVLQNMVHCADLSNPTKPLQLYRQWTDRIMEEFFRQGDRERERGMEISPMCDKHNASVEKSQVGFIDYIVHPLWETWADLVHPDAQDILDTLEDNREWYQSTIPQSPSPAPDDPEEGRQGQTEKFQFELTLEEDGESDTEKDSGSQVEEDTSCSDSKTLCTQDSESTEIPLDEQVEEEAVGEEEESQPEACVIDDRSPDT
# [2] = molecular target: T1, 3',5'-cyclic-AMP phosphodiesterase 4D; assay: Inhibition of PDE4D7 (unknown origin) using FAM-cyclic-3',5'-AMP as substrate at 1 microM incubated for 1 hrs by fluorescence polarization based IMAP assay relative to control
# [3] = Oral bioavailability in Sprague-Dawley rat at 5 mg/kg measured after 24 hrs by LC-MS/MS analysis; assay type: ADME, organism-based; conditions: in vivo
# [4] = Toxicity in ketamine/xylazine-induced anesthetic C57BL/6J mouse model assessed as emetogenic potential by measuring reduction in anesthesia duration at 0.5 mg/kg, po preadministered with compound for 15 mins followed by ketamine/xylazine administration; assay type: organism-based; conditions: in vivo, 0.25 h
# [5] = molecular target: T1, 3',5'-cyclic-AMP phosphodiesterase 4D; assay: Inhibition of PDE4D7 (unknown origin) using FAM-cyclic-3',5'-AMP as substrate incubated for 1 hrs by fluorescence polarization based IMAP assay
# SH-SY5Y = assay: Cytotoxicity against human SH-SY5Y cells assessed as reduction in cell viability at 20 uM incubated for 48 hrs by MTT assay; assay type: toxicity, cell-based
# HT-22 = assay: Cytotoxicity against mouse HT-22 cells assessed as reduction in cell viability at 30 uM incubated for 48 hrs by MTT assay; assay type: toxicity, cell-based; conditions: ht-22, 48 h
# [6] = molecular target: T1, 3',5'-cyclic-AMP phosphodiesterase 4D; assay: Inhibition of PDE4D7 (unknown origin) using FAM-cyclic-3',5'-AMP as substrate at 10 nM incubated for 1 hrs by fluorescence polarization based IMAP assay relative to control
# [7] = Chemical stability of compound in aqueous solution at pH <6 measured after 48 hrs; assay type: physicochemical; conditions: buffer
# [8] = Chemical stability of compound in aqueous solution at pH >10 measured after 48 hrs; assay type: physicochemical; conditions: buffer
# Mus musculus [9] = assay: Protection against alcohol use disorder in C57BL/6J mouse model assessed as decrease in alcohol preference at 1 mg/kg, po pre-trained with alcohol and water for 42 days with subsequent compound addition on day 22 and measured after 3 weeks by two-bottle choice test; assay type: functional, organism-based
# Mus musculus [10] = assay: (§1) Protection against alcohol use disorder in C57BL/6J mouse model assessed as decrease in alcohol intake at 1 mg/kg, po pre-trained with alcohol and water for 42 days with subsequent compound addition from day 22 to day 42 followed by 3.5 hrs of darkness and compound administration for 30 mins followed by water replacement with alcohol for 4 hrs on day 46 by Drink-in-Dark test; assay type: functional, organism-based; conditions: time 23.0 day
# [11] = Toxicity in ketamine/xylazine-induced anesthetic C57BL/6J mouse model assessed as emetogenic potential by measuring reduction in anesthesia duration at 0.5 to 1 mg/kg, po preadministered with compound for 15 mins followed by ketamine/xylazine administration; assay type: organism-based; conditions: in vivo, 0.25 h, dose 0.5-1 mg/kg
# Mus musculus [12] = assay: as §1, with “exposure-induced anxiety like behavior” for “use disorder”, “increase” for “decrease”, “center time” for “alcohol intake”, “and measured 24 hrs after alcohol withdrawal” for “on day 46”, “open field” for “Drink-in-Dark”; assay type: functional, organism-based; conditions: time 24.0 day
# Mus musculus [13] = assay: (§2) Protection against alcoholic liver disease in NIAAA C57BL/6J mouse model assessed as reduction in liver IL-1beta mRNA level at 1 mg/kg, po preadministered with 1 to 4 % of alcohol for 10 days with subsequent compound addition from day 6 to 11 and further administered with 31.25 % alcohol on day 11 and measured after 9 hrs by RT-qPCR analysis; assay type: functional, organism-based; conditions: time 5.0 day
# Mus musculus [14] = assay: Protection against alcohol use disorder in C57BL/6J mouse model assessed as decrease in alcohol intake at 1 mg/kg, po pre-trained with alcohol and water for 42 days with subsequent compound addition on day 22 and measured after 3 weeks by two-bottle choice test; assay type: functional, organism-based
# Mus musculus [15] = assay: as §2, with “TNF-alpha” for “IL-1beta”; assay type: functional, organism-based; conditions: time 5.0 day
# Mus musculus [16] = assay: as §2, with “improvement of” for “reduction in”, “injury” for “IL-1beta mRNA level”, “H&E staining based light microscopic” for “RT-qPCR”; assay type: functional, organism-based; conditions: time 5.0 day
# Mus musculus [17] = assay: as §2, with “improvement of steatosis” for “reduction in liver IL-1beta mRNA level”, “H&E staining based light microscopic” for “RT-qPCR”; assay type: functional, organism-based; conditions: time 5.0 day
# Mus musculus [18] = assay: (§3) Protection against alcohol-induced motor impairment in C57BL/6J mouse model assessed as recovery of average speed at 1 mg/kg, po preadministered with compound every 24 hrs for 3 times followed by alcohol administration 30 mins post last dose and further treated with compound for 3 days followed by alcohol administration 30 mins post last dose and measured at 2 to 20 mins by open field test; assay type: functional, organism-based; conditions: time 8702-8720 min
# Mus musculus [19] = assay: as §2, with “decrease” for “reduction”, “index” for “IL-1beta mRNA level”, “hrs” for “hrs by RT-qPCR analysis”; assay type: functional, organism-based; conditions: time 5.0 day
# Mus musculus [20] = assay: as §2, with “improvement of steatosis” for “reduction in liver IL-1beta mRNA level”, “Oil Red O staining based light microscopic” for “RT-qPCR”; assay type: functional, organism-based; conditions: time 5.0 day
# Mus musculus [21] = assay: as §2, with “decrease” for “reduction”, “serum ALT” for “liver IL-1beta mRNA”, “absorbance based plate analyzer” for “RT-qPCR analysis”; assay type: functional, organism-based; conditions: time 5.0 day
# Mus musculus [22] = assay: as §2, with “serum IL-6” for “liver IL-1beta mRNA”, “ELISA” for “RT-qPCR analysis”; assay type: functional, organism-based; conditions: time 5.0 day
# Mus musculus [23] = assay: as §2, with “improvement of” for “reduction in”, “injury” for “IL-1beta mRNA level”, “Oil Red O staining based light microscopic” for “RT-qPCR”; assay type: functional, organism-based; conditions: time 5.0 day
# Mus musculus [24] = assay: as §2, with “serum TNF-alpha” for “liver IL-1beta mRNA”, “ELISA” for “RT-qPCR analysis”; assay type: functional, organism-based; conditions: time 5.0 day
# Mus musculus [25] = assay: Protection against alcohol-induced sedation in C57BL/6J mouse model assessed as reduction in sleep time at 1 mg/kg, po preadministered with compound every 24 hrs for 3 times followed by alcohol administration 30 mins post last dose; assay type: functional, organism-based; conditions: time 72.5 hrs
# Mus musculus [26] = assay: as §3, with “increase in distance travelled” for “recovery of average speed”; assay type: functional, organism-based; conditions: time 8702-8720 min
# Mus musculus [27] = assay: as §2, with “IL-6” for “IL-1beta”; assay type: functional, organism-based; conditions: time 5.0 day
# Mus musculus [28] = assay: as §2, with “decrease” for “reduction”, “serum AST” for “liver IL-1beta mRNA”, “absorbance based plate analyzer” for “RT-qPCR analysis”; assay type: functional, organism-based; conditions: time 5.0 day
# Mus musculus [29] = assay: Protection against alcohol-induced motor impairment in C57BL/6J mouse model assessed as short recovery time by measuring latency to falling off at 1 mg/kg, po preadministered with compound every 24 hrs for 3 times followed by alcohol administration 30 mins post last dose and further treated with compound for 3 days followed by alcohol administration 30 mins post last dose and measured at 2 to 20 mins by rotarod test; assay type: functional, organism-based; conditions: time 8702-8720 min
# Mus musculus [30] = assay: as §3, with “decrease in resting time” for “recovery of average speed”; assay type: functional, organism-based; conditions: time 8702-8720 min
# Mus musculus [31] = assay: as §1, with “exposure-induced anxiety like behavior” for “use disorder”, “distance travelled” for “decrease in alcohol intake”, “and measured 24 hrs after alcohol withdrawal” for “on day 46”, “open field” for “Drink-in-Dark”; assay type: functional, organism-based; conditions: time 24.0 day
smiles,measurement,setting,value
Clc1cc2c(cnn2C2CCOCC2)c(OC2CCCC2)n1,inhibition,[1],5%
same,inhibition,[2],10%
CCNc1nc(Cl)cc2c1cnn2C1CCCC1,inhibition,[1],5%
same,inhibition,[2],28%
CC(C)NC(=O)c1ccc(OC(F)F)c(OCC2CC2)c1,bioavailability,[3],1.2%
O=C(Nc1c(Cl)cncc1Cl)c1ccc(OC(F)F)c(OCC2CC2)c1 [ROFLUMILAST],Activity,[4],Toxic
COc1nc(Cl)cc2c1cnn2C1CCOCC1,inhibition,[1],35%
same,inhibition,[2],75%
FC(F)(F)COc1nc(Cl)cc2c1cnn2C1CCOCC1,inhibition,[1],16%
same,inhibition,[2],35%
CNc1nc(Cl)cc2c1cnn2C1CCCC1,inhibition,[1],15%
same,inhibition,[2],59%
CCOc1nc(C#N)cc2c1cnn2C1CCOCC1,IC50,[5],230 nM
same,inhibition,[1],32%
same,inhibition,[2],82%
CCOc1nc(Cl)cc2nn(CC(=O)NO)cc12,Activity,SH-SY5Y,Non-Toxic
same,IC50,[5],20.2 nM
same,inhibition,[1],69%
same,Activity,HT-22,Non-Toxic
same,inhibition,[6],36%
CCOc1nc(Cl)nc2c1cnn2C1CCOCC1,Stability,[7],Unstable
same,Stability,[8],Unstable
CCOc1nc(Cl)cc2nn(CCC(=O)NO)cc12,IC50,[5],38.7 nM
same,inhibition,[1],66%
same,inhibition,[6],25%
CCOc1nc(Cl)cc2nn(CCCO)cc12,Activity,SH-SY5Y,Non-Toxic
same,IC50,[5],71.3 nM
same,inhibition,[1],53%
same,Activity,HT-22,Non-Toxic
same,inhibition,[6],21%
CCOc1nc(-c2ccsc2)cc2c1cnn2C1CCOCC1,inhibition,[1],3%
same,inhibition,[2],4%
CCOc1nc(Cl)cc2c1cnn2CC(=O)NO,Activity,SH-SY5Y,Non-Toxic
same,IC50,[5],16.6 nM
same,inhibition,[1],68%
same,Activity,HT-22,Non-Toxic
same,inhibition,[6],41%
CCOc1nc(Cl)cc2c1cnn2C1CCOCC1,Stability,[7],Stable
same,IC50,[5],92.7 nM
same,inhibition,[1],64%
same,inhibition,[2],95%
same,Stability,[8],Stable
CCOc1nc(-c2cccs2)cc2c1cnn2C1CCOCC1,inhibition,[1],4%
same,inhibition,[2],23%
CCOc1nc(Cl)cc2nn(CCCC(=O)NO)cc12,IC50,[5],51.7 nM
same,inhibition,[1],63%
same,inhibition,[6],18%
CNc1nc(Cl)cc2c1cnn2C1CCOCC1,inhibition,[1],0%
same,inhibition,[2],0%
CCOc1nc(-c2ccccc2)cc2c1cnn2C1CCOCC1,inhibition,[1],14%
same,inhibition,[2],32%
Clc1cc2c(cnn2C2CCOCC2)c(OC2CC2)n1,inhibition,[1],4%
same,inhibition,[2],8%
CCOc1nc(C(C)=O)cc2c1cnn2C1CCOCC1,inhibition,[1],6%
same,inhibition,[2],9%
CCCOc1nc(Cl)cc2c1cnn2C1CCOCC1,inhibition,[1],2%
same,inhibition,[2],5%
CC(C)Oc1nc(Cl)cc2c1cnn2C1CCOCC1,inhibition,[1],12%
same,inhibition,[2],30%
CCOc1cc([C@@H](CS(C)(=O)=O)N2C(=O)c3cccc(NC(C)=O)c3C2=O)ccc1OC [APREMILAST],Activity,[4],Toxic
COc1ccc(C2CNC(=O)C2)cc1OC1CCCC1 (configuration not stated) [ROLIPRAM],Activity,Mus musculus [9],Active
same,Activity,Mus musculus [10],Active
same,Activity,[11],Toxic
same,Activity,Mus musculus [12],Active
same,Activity,Mus musculus [13],Active
same,Activity,Mus musculus [14],Active
same,Activity,Mus musculus [15],Active
same,Activity,Mus musculus [16],Active
same,inhibition,[1],34%
same,Activity,Mus musculus [17],Active
same,Activity,Mus musculus [18],Active
same,Activity,Mus musculus [19],Active
same,Activity,Mus musculus [20],Active
same,inhibition,[2],72%
same,Activity,Mus musculus [21],Active
same,Activity,Mus musculus [22],Active
same,Activity,Mus musculus [23],Active
same,Activity,Mus musculus [24],Active
same,Activity,Mus musculus [25],inactive
same,Activity,Mus musculus [26],Active
same,Activity,Mus musculus [27],Active
same,Activity,Mus musculus [28],Active
same,Activity,Mus musculus [29],inactive
same,Activity,Mus musculus [30],Active
same,Activity,Mus musculus [31],Active
CCOc1nc(C(N)=O)cc2c1cnn2C1CCOCC1,inhibition,[1],6%
same,inhibition,[2],12%
